Results from patent US12171854B2, “Heterocyclic-dithiol click chemistry” (Northeastern University, priority 2017, dated 2024).
Where “and” joins values, the source holds several entries; their conditions need not be identical. Equal entries are not always repeated. Entries after “also recorded” stand apart in the source; their conditions may differ. Values belong to the molecule of their own block, whether it stands above or below them.

Assays:
WT SOD1 [1] = target: T1, WT SOD1 (Homo sapiens, UniProt P00441); test: SOD1 cross-linking kinetics, mass spectrometry assay (percent covalent dimer); format: biochemical; details: for % of SOD1 cross-linked after 10 min of incubation: 50 μM SOD1, 1000 μM compound (20× excess), pH 7.4, 10 min; for binding to single Cys residues (free Cys111 and Cys6) of SOD1: any sample; for cross-linking of SOD1, result in words (FIG. 13): 1:1 ratio of SOD1 dimer:cross-linker
T1 construct: made in house; host or cells: EGy118ΔSOD1 yeast, vector YEp-351
T1 sequence (P00441 2-154 limits assumed): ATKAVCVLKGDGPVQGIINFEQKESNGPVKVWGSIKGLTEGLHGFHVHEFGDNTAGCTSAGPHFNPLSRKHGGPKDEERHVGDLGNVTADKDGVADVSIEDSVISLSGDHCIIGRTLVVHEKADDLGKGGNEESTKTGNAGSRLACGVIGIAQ
From the text: The reaction was monitored using a mass spectrometry (MS) assay that uses a combination of increased voltage within the region of hypersonic gas expansion and brief treatment with 10% formic acid to create exclusively monomeric SOD1 or covalently cross-linked SOD1 dimer. Formic acid also quenches the reaction, transforming any reactive thiolates to unreactive thiols. As a result, if no reaction occurs, only apo SOD1 monomer is detected (FIG. 2, top). […] Given sufficient time for thiolates to be oxidized to sulfenic acid (which occurs on the order of days-weeks), even 1,2-dithiane was expected to cross-link SOD1. After 72 h of incubation with 1,2-dithiane, 11% of SOD1 had formed the expected covalent dimer (FIG. 5).
Human WT SOD1 was expressed in yeast. […] Dilution in HPLC-Grade water to 1 mM cyclic disulfide was performed prior to experimentation. As a negative control, 50 μM human WT SOD1 was incubated at 37° C. with 4% HPLC-grade methanol. At every time point, 1 μL of each sample was removed from their respective reaction vial for analysis. Samples were briefly (˜30 seconds) incubated at room temperature with 10% formic acid to remove metals from SOD1 and quench cross-linking reaction prior to mass spectrometry analysis. Samples were then diluted to 1 μM SOD1 in 50:50 acetonitrile:water, 0.1% FA and analyzed by direct infusion into a Bruker SolariX XR FT-ICR mass spectrometer. The percent dimer formation was calculated by comparing the relative dimer (31,808 Da) and monomer (15,844 Da) MaxEnt deconvoluted peak heights (Dimer/(Dimer+Monomer)). Identical methods were used in the kinetics of α-lipoic acid and β-lipoic acid. Kinetics of 1,2-dithiepane vs. 1,2-dithiepane-1-oxide were performed at a 1:1 ratio of SOD1 dimer:cross-linker.

SOD1 in Hep G2 cells = target: T2, SOD1 in Hep G2 cells (Homo sapiens, UniProt P00441); test: SOD1 cross-linking in Hep G2 cells, western blot; format: cell-based; details: for cross-linking of SOD1 in cells, result in words: Hep G2 cells, increasing concentrations, compared with α-lipoic acid
T2 construct: endogenous in cells; host or cells: Hep G2
T2 sequence (P00441 2-154 limits assumed): as above
Description: Hep G2 cells were cultures in DMEM with 10% fetal bovine serum and penicillin/streptomycin in 96 well Costar® Corning CellBIND plate with 5% CO2 at 37° C. The cells were cultured to monolayer confluency. […] Stocks were diluted twenty-fold in 1×PBS (final DMSO 5%). Cells were treated with 200 uL of compound and incubated for 30 minutes at 37° C. 5% CO2. Cells were washed with 1×PBS and 20 μL of 6× nonreducing sample buffer was added to each well. The 96 well plate was heated to 90° C. for 10 minutes. Samplers were spun at 14000 RPM for 5 minutes in a Beckman Coulter Microfuge®18 centrifuge. Samples were run using a Bio Rad Mini-Protean electrophoresis chamber on 12% precast TGX polyacrylamide gels at 150V. After separation was complete, gels were extracted from the cassettes and incubated in an in-house transfer buffer for 10 minutes are 90° C. to ensure thorough transfer of protein bands and thorough binding of antibody (25 mM Tris, 192 mM glycine, 10 mM 2-mercaptoethanol, 0.1% SDS). Transfer was performed with a Bio Rad Trans-blot turbo transfer system using a trans-clot turbo transfer pack. Membranes were dried, blocked with 5% milk for 2 h at room temperature. Membranes were then probed with primary antibody, anti-SOD1 antibody SOD100 overnight at 4° C. Membranes are incubated with HRP-labeled secondary antibodies and visualized using ECL Western Blotting Substrate and imaged using the ChemiDoc MP.

C111S SOD1 = target: T3, C111S SOD1 (Homo sapiens, UniProt P00441, C112S); test: Localization of cross-link using point mutated C111S SOD1 (LC-MS); format: biochemical; details: 10 μM SOD1, 100 μM compound, overnight, room temperature
T3 construct: made in house; host or cells: EGy118ΔSOD1 yeast, vector YEp-351
T3 sequence (P00441 2-154 C112S limits assumed): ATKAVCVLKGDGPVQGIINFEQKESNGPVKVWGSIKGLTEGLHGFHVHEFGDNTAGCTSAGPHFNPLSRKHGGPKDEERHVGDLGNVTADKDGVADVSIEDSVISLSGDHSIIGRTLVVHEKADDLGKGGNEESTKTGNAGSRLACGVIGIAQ
Description: Aliquots from each of the SOD1 incubations were individually diluted ten-fold with H2O containing 0.1% formic acid and analyzed using reversed phase C18 LC-MS on a Bruker HCT Ultra ion trap. The resulting data were processed using DataAnalysis 3.4 (Bruker Daltonics). Mass spectra were averaged across the retention times corresponding to when SOD1 eluted and were deconvoluted to determine the molecular weight of the uncharged species.

WT SOD1 [2] = target: T1, WT SOD1; test: In vitro glutathione competition assay; format: biochemical
Description: Purified WT SOD1 was diluted to 10 μM in 10 mM ammonium acetate, pH 7.4. […] Samples were briefly (30 seconds) incubated at room temperature with 10% formic acid to remove metals from SOD1 prior to mass spectrometry analysis. Samples were then diluted to 1 μM SOD1 in 50:50 acetonitrile:water, 0.1% FA and analyzed by direct infusion into a Bruker Solarix XR FT-ICR mass spectrometer. The percent dimer formation was calculated by comparing the relative dimer (31,808 Da) and monomer (15,844 Da) MaxEnt deconvoluted peak heights (Dimer/(Dimer+Monomer))

WT SOD1 [3] = target: T1, WT SOD1; test: In vitro DTT competition assay; format: biochemical; details: 1:1 cross-linker:DTT (equimolar), 24 h, 37° C.
Description: Purified WT SOD1 was diluted to 50 μM in 10 mM ammonium acetate, pH 7.4. […] DTT solutions were made in 100% HPLC grade H2O. DTT solution concentrations were 1 mM, 2 mM and 4 mM. Samples were left to incubate at 37° C. for 24 h. Samples were then diluted to 1 μM SOD1 in 50:50 acetonitrile:water, 0.1% FA and analyzed by direct infusion into a Bruker Solarix XR FT-ICR mass spectrometer

SOD1 in HeLa cells = target: T4, SOD1 in HeLa cells (Homo sapiens, UniProt P00441); test: SOD1 cross-linking in HeLa cells, western blot; format: cell-based; details: EC50 for cross-linking of SOD1, HeLa cells
T4 construct: endogenous in cells; host or cells: HeLa
T4 sequence (P00441 2-154 limits assumed): as the sequence (P00441 2-154 limits assumed) above
Description: HeLa cells were cultured in DMEM with 10% fetal bovine serum and penicillin/streptomycin in 24 well Costar® Corning CellBIND plate with 5% CO2 at 37° C. The cells were cultured to monolayer confluency. […] The 100 mM solution diluted to various concentrations with 1×PBS solution. 1 mL of solutions was added to the HeLa cells in the 24 well plate. […] Cells were washed 2× with 1 mL PBS. After removing the second PBS wash, the cells were then treated with 6× non-reducing SDS sample buffer and collected. The collected cell lysate was divided into two parts. One half was treated with 5% β-ME, to remove bound cyclic disulfides, as negative controls. The other half was treated with equal amount of milliQ water. All the cell lysate samples were then heated at 80° C. for 10 minutes in an Eppendorf Thermomixer. The samples were spun at 14000 rpm for 5 minutes in Beckman Coulter Microfuge centrifuge. HeLa cell extracts were separated on 12% SDS-polyacrylamide TrisHCl gels run at 80 V at room temperature. Proteins were transferred to nitrocellulose membranes for Western blotting. Monomer and covalently-linked dimer SOD1 were detected using the rabbit polyclonal anti-SOD1 antibody SOD100. Membranes are incubated with HRP-labeled secondary antibodies and visualized using ECL Western Blotting Substrate and imaged using the ChemiDoc MP.

SH-SY5Y cells = format: cell-based; details: 24 h
Description: Human immortalized neuroblastoma cells (SH-SY5Y) were purchased from ATCC (Manassas, Virginia, USA). Cells were grown in Eagle's Minimum Essential Medium (EMEM) supplemented with 10% fetal bovine serum at 37° C. and 5% CO2 to >70% confluency. […] Following incubation with 1,2-dithaine-1-oxide, 22 μL of PrestoBlue® was added to each well and allowed to incubate for 10 min at 37° C. Excitation/emission was measured at 560/590 (in nm) using an Infinite® 200 plate reader (Tecan, Mannedorf, Switzerland). Cell viability was quantified relative to untreated cells.

[4] = with reduced glutathione; cited from earlier work
[5] = 50 μM SOD1, 20× excess compound
[6] = 10× compound and 100× reduced glutathione

% of SOD1 cross-linked after 10 min of incubation (WT SOD1 [1]; 37° C.): 0%
cross-linking of SOD1, result in words (WT SOD1 [1]; [5]): slow cross-link formation
% of SOD1 forming covalent dimer after three days (72 h) (WT SOD1 [1]; 50 μM SOD1, 20× excess compound, 37° C., 72 h): 11%
binding to single Cys residues (free Cys111 and Cys6) of SOD1 (WT SOD1 [1]): no binding to single Cys residues
Molecule: C1CCSSC1 [1,2-dithiane]

Molecule: β-lipoic acid
rate and extent of covalent cross-linking of SOD1 versus α-lipoic acid, in words (WT SOD1 [1]; mass spectrometry assay): Both rate and extent of covalent cross-linking of SOD1 is increased
more SOD1 cross-linked in vitro compared to ALA (WT SOD1 [1]; mass spectrometry assay, compared to ALA): 30%
cross-linking of SOD1 in cells, result in words (SOD1 in Hep G2 cells): cross-links SOD1 in Hep G2 cells, and does so more efficiently than the cyclic disulfide, α-lipoic acid
cross-linking of SOD1 in cells, result in words (SOD1 in Hep G2 cells; listed as BLA): cross-linked SOD1 in cells

cross-linking of SOD1, result in words (FIG. 13) (WT SOD1 [1]): does not
Molecule: C1CCSSCC1 [1,2-dithiepane]

Molecule: [O-][S+]1CCCCS1 (stereo not shown) [1,2-dithiane-1-oxide]
% of SOD1 cross-linked after 10 min of incubation (WT SOD1 [1]; 37° C.): 95%
cross-linking of SOD1, result in words (WT SOD1 [1]; [5]): rapid and complete dithiolate cross-linking
binding to single Cys residues (free Cys111 and Cys6) of SOD1 (WT SOD1 [1]): no binding to single Cys residues
overall second order rate constant of cross-linking product formation (WT SOD1 [1]; multi-concentration kinetics, protocol of Singh et al.): 250 M⁻¹ s⁻¹
covalent dimer formation with C111S SOD1 (C111S SOD1): No cross-linking was observed; also recorded: no covalent dimer formation
cross-linking of SOD1 in the presence of glutathione, result in words (WT SOD1 [2]; 10:1 ratio of glutathione:compound): proceeded to completion; also recorded: can efficiently cross-link SOD1
cross-linking yield in the presence of glutathione (WT SOD1 [2]; [6]): 100%
rate of cross-linking in the presence of glutathione (WT SOD1 [2]; [6]): decreased
cross-linking of SOD1 in the presence of DTT, result in words (WT SOD1 [3]): proceeded to completion; also recorded: ability to cross-link the thiol pair of SOD1
EC50 (SOD1 in Hep G2 cells; EC50 for cross-linking of SOD1, Hep G2 cells, 30 min incubation, western blot): ~5 µM and 1 to 5 µM
EC50 (SOD1 in HeLa cells): ~5 µM and 1 to 5 µM
concentration at which cell viability is equivalent to untreated cells, relative to EC50 (SH-SY5Y cells): 50 fold

cross-linking of SOD1, result in words (FIG. 15) (WT SOD1 [1]): does not
Molecule: C1CCCSSCC1 [1,2-dithiocane]

cross-linking of SOD1, result in words (FIG. 15) (WT SOD1 [1]): rapid and complete cross-link of SOD1
Molecule: [O-][S+]1CCCCCCS1 (stereo not shown) [1,2-dithiocane-1-oxide]

Molecule: [O-][S+]1CCCCCS1 (stereo not shown) [1,2-dithiepane-1-oxide]
cross-linking of SOD1, result in words (FIG. 13) (WT SOD1 [1]): rapid and complete cross-link of SOD1

Molecule: OC1CSSCC1O (stereo not shown) [oxidized DTT]
extrapolated half-life of thiol-disulfide exchange [4]: > 3.33 h
